# Test results as given in patent US9988635B2, “Modulation of growth hormone receptor expression and insulin-like growth factor expression” (Antisense Therapeutics Limited, priority 2003, dated 2018).
# In the oligonucleotide strings, read from the 5' end, every base follows the letter of its sugar. An asterisk marks phosphorothioate; unmarked linkages are phosphodiester. Other units and linkages are bracketed, terminal groups are in braces. A string of capitals states the bases alone. e = 2'-O-(2-methoxyethyl) (MOE); [5mC] = 5-methylcytosine; d = 2'-deoxy (DNA)
# Tested on: human growth hormone receptor mRNA
# Assay: Inhibition of human growth hormone receptor mRNA levels in MCF7 cells, quantitative real-time PCR
# Format: cell-based
# Parameters: concentration or dose not given beside the values
# Conditions: averages from three experiments
# Protocol: The human breast carcinoma cell line MCF-7 was obtained from the American Type Culture Collection (Manassas, Va.). MCF-7 cells were routinely cultured in DMEM low glucose (Gibco/Life Technologies, Gaithersburg, Md.) supplemented with 10% fetal calf serum (Gibco/Life Technologies, Gaithersburg, Md.). Cells were routinely passaged by trypsinization and dilution when they reached 90% confluence. Cells were seeded into 96-well plates (Falcon-Primaria #3872) at a density of 7000 cells/well for use in RT-PCR analysis.
# When cells reached 65-75% confluency, they were treated with oligonucleotide. For cells grown in 96-well plates, wells were washed once with 100 μL OPTI-MEM™-1 reduced-serum medium (Invitrogen Corporation, Carlsbad, Calif.) and then treated with 130 μL of OPTI-MEM™-1 containing 3.75 μg/mL LIPOFECTIN™ (Invitrogen Corporation, Carlsbad, Calif.) and the desired concentration of oligonucleotide. Cells are treated and data are obtained in triplicate. After 4-7 hours of treatment at 37° C., the medium was replaced with fresh medium. Cells were harvested 16-24 hours after oligonucleotide treatment.
# Total RNA was isolated using an RNEASY 96™ kit and buffers purchased from Qiagen Inc. (Valencia, Calif.) following the manufacturer's recommended procedures. Briefly, for cells grown on 96-well plates, growth medium was removed from the cells and each well was washed with 200 μL cold PBS. 150 μL Buffer RLT was added to each well and the plate vigorously agitated for 20 seconds. 150 μL of 70% ethanol was then added to each well and the contents mixed by pipetting three times up and down. The samples were then transferred to the RNEASY 96™ well plate attached to a QIAVAC™ manifold fitted with a waste collection tray and attached to a vacuum source. Vacuum was applied for 1 minute. 500 μL of Buffer RW1 was added to each well of the RNEASY 96™ plate and incubated for 15 minutes and the vacuum was again applied for 1 minute. An additional 500 μL of Buffer RW1 was added to each well of the RNEASY 96™ plate and the vacuum was applied for 2 minutes. 1 mL of Buffer RPE was then added to each well of the RNEASY 96™ plate and the vacuum applied for a period of 90 seconds. The Buffer RPE wash was then repeated and the vacuum was applied for an additional 3 minutes. The plate was then removed from the QIAVAC™ manifold and blotted dry on paper towels. The plate was then re-attached to the QIAVAC™ manifold fitted with a collection tube rack containing 1.2 mL collection tubes. RNA was then eluted by pipetting 140 μL of RNAse free water into each well, incubating 1 minute, and then applying the vacuum for 3 minutes.
# Quantitation of growth hormone receptor mRNA levels was accomplished by real-time quantitative PCR using the ABI PRISM™ 7600, 7700, or 7900 Sequence Detection System (PE-Applied Biosystems, Foster City, Calif.) according to manufacturer's instructions. This is a closed-tube, non-gel-based, fluorescence detection system which allows high-throughput quantitation of polymerase chain reaction (PCR) products in real-time. As opposed to standard PCR in which amplification products are quantitated after the PCR is completed, products in real-time quantitative PCR are quantitated as they accumulate. This is accomplished by including in the PCR reaction an oligonucleotide probe that anneals specifically between the forward and reverse PCR primers, and contains two fluorescent dyes. A reporter dye (e.g., FAM or JOE, obtained from either PE-Applied Biosystems, Foster City, Calif., Operon Technologies Inc., Alameda, Calif. or Integrated DNA Technologies Inc., Coralville, Iowa) is attached to the 5′ end of the probe and a quencher dye (e.g., TAMRA, obtained from either PE-Applied Biosystems, Foster City, Calif., Operon Technologies Inc., Alameda, Calif. or Integrated DNA Technologies Inc., Coralville, Iowa) is attached to the 3′ end of the probe. When the probe and dyes are intact, reporter dye emission is quenched by the proximity of the 3′ quencher dye. […]
row,Substance,% INHIB of human growth hormone receptor mRNA levels [%]
1,272328 (antisense eG*eG*e[5mC]*eA*eT*dT*dG*dT*d[5mC]*d[5mC]*dA*dT*dA*dA*dG*eG*eA*eA*eG*eT) [compound 272328],85
2,272357 (antisense eT*eA*eG*eG*eG*dT*d[5mC]*d[5mC]*dA*dT*d[5mC]*dT*dT*dT*d[5mC]*eA*eA*eG*eA*e[5mC]) [compound 272357],62
3,272332 (antisense e[5mC]*eT*e[5mC]*eT*eT*dT*dG*dT*d[5mC]*dA*dG*dG*d[5mC]*dA*dA*eG*eG*eG*e[5mC]*eA) [compound 272332],75
4,272356 (antisense eA*eT*eG*eG*eA*dG*dG*d[5mC]*dT*dG*dG*dA*dG*dG*dT*eT*e[5mC]*eA*eA*eA) [compound 272356],63
5,272312 (antisense eG*eG*eG*eT*eG*dG*dA*dT*d[5mC]*dT*dG*dG*dT*dT*dG*e[5mC]*eA*e[5mC]*eT*eA) [compound 272312],57
6,272310 (antisense eT*eT*eT*e[5mC]*eA*dT*d[5mC]*d[5mC]*dA*d[5mC]*dT*dG*dT*dA*d[5mC]*e[5mC]*eA*e[5mC]*e[5mC]*eA) [compound 272310],76
7,272345 (antisense e[5mC]*eA*eT*e[5mC]*eT*dA*dT*dT*dA*d[5mC]*dA*dA*dA*dT*dA*eA*e[5mC]*eA*eT*eG) [compound 272345],24
8,227490 (antisense eG*e[5mC]*eA*eT*eG*dA*dT*dT*dT*dT*dG*dT*dT*d[5mC]*dA*eG*eT*eT*eG*eG) [compound 227490],67
9,272349 (antisense eA*eG*eT*e[5mC]*eT*dT*d[5mC]*d[5mC]*dA*dA*dA*d[5mC]*dA*d[5mC]*dA*e[5mC]*eA*eG*e[5mC]*eT) [compound 272349],68
10,227480 (antisense eA*eT*eG*eT*eA*dA*dA*dT*dG*dT*d[5mC]*d[5mC]*dT*d[5mC]*dT*eT*eG*eG*eT*eT) [compound 227480],66
11,272361 (antisense eA*eT*eT*eT*eT*d[5mC]*d[5mC]*dT*dT*d[5mC]*d[5mC]*dT*dA*dG*dA*eA*eA*eA*eT*eA) [compound 272361],10
12,272320 (antisense eA*eG*eA*eT*eT*dG*dT*dG*dT*dT*d[5mC]*dA*d[5mC]*d[5mC]*dT*e[5mC]*e[5mC]*eT*e[5mC]*eT) [compound 272320],70
13,227452 (antisense eT*e[5mC]*eA*eG*eG*dG*d[5mC]*dA*dT*dT*d[5mC]*dT*dT*dT*d[5mC]*e[5mC]*eA*eT*eT*e[5mC]) [compound 227452],79
14,272311 (antisense eT*eT*eG*e[5mC]*eA*d[5mC]*dT*dA*dT*dT*dT*d[5mC]*dA*dT*d[5mC]*eA*eA*e[5mC]*eA*eG) [compound 272311],47
15,272304 (antisense eT*eG*e[5mC]*eT*eA*dA*dG*dG*dA*dT*dA*dG*d[5mC]*dT*dG*e[5mC]*eT*eG*eT*eG) [compound 272304],48
16,272313 (antisense eA*eT*eT*eG*e[5mC]*dG*dT*dG*dG*dT*dG*d[5mC]*dT*dT*d[5mC]*e[5mC]*e[5mC]*eA*eT*e[5mC]) [compound 272313],77
17,272329 (antisense eA*e[5mC]*eT*eT*eT*dT*dT*dG*dG*d[5mC]*dA*dT*d[5mC]*dT*dG*e[5mC]*e[5mC]*eT*e[5mC]*eA) [compound 272329],63
18,272327 (antisense eG*eG*eA*e[5mC]*eA*dT*d[5mC]*d[5mC]*d[5mC]*dT*dG*d[5mC]*d[5mC]*dT*dT*eA*eT*eT*e[5mC]*eT) [compound 272327],60
